According to ChEMBL document CHEMBL5370538, “Discovery of novel 6-p-tolyl-3-(3,4,5-trimethoxybenzyl)-7H-[1,2,4]triazolo[3,4-b][1,3,4]thiadiazine derivative as a potent tubulin inhibitor with promising in vivo antitumor activity” (Eur J Med Chem, 2023):
The source made the active and inactive calls. The rule behind the calls is not given here.

Tests used:
[1] = tested on: HT-29; test: Antiproliferative activity against human HT-29 cells assessed as cell growth inhibition incubated for 48 hrs by MTT assay; assay type: functional, cell-based; details: HT-29, 48 h
[2] = Antiproliferative activity against human HEK293 cells assessed as cell growth inhibition incubated for 48 hrs by MTT assay; assay type: toxicity, cell-based
[3] = tested on: A549; test: Antiproliferative activity against human A549 cells assessed as cell growth inhibition incubated for 48 hrs by MTT assay; assay type: functional, cell-based; details: A549, 48 h
[4] = tested on: HeLa; test: Antiproliferative activity against human HeLa cells assessed as cell growth inhibition incubated for 48 hrs by MTT assay; assay type: functional, cell-based
[5] = tested on: MDA-MB-231; test: Antiproliferative activity against human MDA-MB-231 cells assessed as cell growth inhibition incubated for 48 hrs by MTT assay; assay type: functional, cell-based; details: MDA-MB-231, 48 h
[6] = target: T1, Tubulin (Homo sapiens) (UniProt P68371+Q9H4B7+P0DPH7+P68366+Q13509+Q71U36+P04350+Q3ZCM7+P07437+P68363+Q9BQE3+Q6PEY2+Q13885+Q9BVA1+Q9BUF5); test: Inhibition of tubulin polymerization (unknown origin) at 10 uM measured for 20 mins in presence of GTP by spectrophotometry analysis relative to control; assay type: protein-complex assay
[7] = target: T1, Tubulin (Homo sapiens); test: Inhibition of tubulin polymerization (unknown origin) at 10 uM measured for 20 mins in presence of GTP by spectrophotometry analysis; assay type: protein-complex assay

| SMILES | IC50 [1] [µM] | further results |
| --- | --- | --- |
| COc1cc(OCc2nnc3n2N=C(c2ccc(SC)cc2)CS3)cc(OC)c1OC | > 50 |  |
| COc1cc(Cc2nnc3n2N=C(c2ccc(-c4ccccc4)cc2)CS3)cc(OC)c1OC | > 50 |  |
| COc1cc(Cc2nnc3n2N=C(c2ccc(Cl)cc2)CS3)cc(OC)c1OC | 1.02 | IC50 at 48 h [2]: > 100 µM; IC50 [3]: 5.77 µM; IC50 [4]: 1.33 µM; IC50 [5]: 4.63 µM; inhibition [6]: 30% |
| COc1cc(Cc2nnc3n2N=C(c2ccc([N+](=O)[O-])cc2)CS3)cc(OC)c1OC | > 50 |  |
| COc1ccc(C2=Nn3c(Cc4cc(OC)c(OC)c(OC)c4)nnc3SC2)cc1 | 42.8 |  |
| COc1ccc(Cc2nnc(SCC(=O)c3ccc(C)cc3)n2N)c(OC)c1OC | 0.62 | IC50 at 48 h [2]: > 100 µM; IC50 [3]: 11.8 µM; IC50 [4]: 9.02 µM; IC50 [5]: > 50 µM |
| COc1ccc(C2=Nn3c(Cc4cc(OC)c(OC)c(OC)c4)nnc3SC2)cc1N | > 50 |  |
| COc1ccc(C2=Nn3c(COc4cc(OC)c(OC)c(OC)c4)nnc3SC2)cc1[N+](=O)[O-] | > 50 |  |
| COc1cc(OCc2nnc3n2N=C(c2ccc(N)cc2)CS3)cc(OC)c1OC | > 50 |  |
| COc1cccc(C2=Nn3c(Cc4cc(OC)c(OC)c(OC)c4)nnc3SC2)c1 | 32 |  |
| COc1ccc(/C=C\c2cc(OC)c(OC)c(OC)c2)cc1O [COMBRETASTATIN A4] | 1.18 | IC50 [4]: 0.043 µM; IC50 [5]: 0.077 µM |
| COc1ccc(C2=Nn3c(COc4cc(OC)c(OC)c(OC)c4)nnc3SC2)cc1F | > 50 |  |
| COc1cc(Cc2nnc3n2N=C(c2ccccc2)CS3)cc(OC)c1OC | > 50 |  |
| COc1cc(OCc2nnc3n2N=C(c2ccc(Cl)c(Cl)c2)CS3)cc(OC)c1OC | 48.1 |  |
| COc1cc(Cc2nnc3n2N=C(c2ccc(F)cc2)CS3)cc(OC)c1OC | > 50 |  |
| COc1cc(Cc2nnc3n2N=C(c2ccc(C(F)(F)F)cc2)CS3)cc(OC)c1OC | 5.03 |  |
| CC(=O)O[C@H]1C(=O)[C@@]2(C)[C@H]([C@H](OC(=O)c3ccccc3)[C@]3(O)C[C@H](OC(=O)[C@H](O)[C@@H](NC(=O)c4ccccc4)c4ccccc4)C(C)=C1C3(C)C)[C@]1(OC(C)=O)CO[C@@H]1C[C@@H]2O |  | inhibition [7]: inactive |
| COc1ccc(C2=Nn3c(Cc4cc(OC)c(OC)c(OC)c4)nnc3SC2)cc1[N+](=O)[O-] | 49.2 |  |
| COc1cc(OCc2nnc3n2N=C(c2ccc(C(F)(F)F)cc2)CS3)cc(OC)c1OC | > 50 |  |
| COc1cc(Cc2nnc3n2N=C(c2cccs2)CS3)cc(OC)c1OC | > 50 |  |
| COc1cc(Cc2nnc3n2N=C(c2ccc(N(C)C)cc2)CS3)cc(OC)c1OC | 35.2 |  |
| COc1ccc(C2=Nn3c(COc4cc(OC)c(OC)c(OC)c4)nnc3SC2)cc1OC(C)=O | 26.2 |  |
| COc1ccc(C2=Nn3c(COc4cc(OC)c(OC)c(OC)c4)nnc3SC2)cc1OC | > 50 |  |
| COc1ccc(C2=Nn3c(COc4cc(OC)c(OC)c(OC)c4)nnc3SC2)cc1N | 4.93 |  |
| COc1cc(OCc2nnc3n2N=C(c2ccc(N(C)C)cc2)CS3)cc(OC)c1OC | 0.41 | IC50 at 48 h [2]: > 100 µM; IC50 [3]: > 50 µM; IC50 [4]: 2.2 µM; IC50 [5]: 9.73 µM; inhibition [6]: 12% |
| COc1cc(Cc2nnc3n2N=C(c2ccc(Br)cc2)CS3)cc(OC)c1OC | 43.6 |  |
| COc1cc(OCc2nnc3n2N=C(c2ccc(C)cc2)CS3)cc(OC)c1OC | 0.46 | IC50 at 48 h [2]: > 100 µM; IC50 [3]: 30.6 µM; IC50 [4]: > 50 µM; IC50 [5]: 12.8 µM; inhibition [6]: 11% |
| COc1cc(Cc2nnc3n2N=C(c2ccccc2F)CS3)cc(OC)c1OC | 44.6 |  |
| COc1ccc(C2=Nn3c(Cc4cc(OC)c(OC)c(OC)c4)nnc3SC2)cc1O | 9.69 |  |
| COc1ccc(C2=Nn3c(COc4cc(OC)c(OC)c(OC)c4)nnc3SC2)cc1O | 36.4 |  |
